The nature of data set [1]: pKa. Format: physicochemical.
In data set [2] the target is P-glycoprotein (MDR1-transfected MDCK cell line) (Homo sapiens (Human), UniProt P08183). Nature of the data set: Pgp Liability MDR1 Er. Format: in vitro ADME. Particulars: Papp BA/AB. An excerpt:
MDR1 Efflux Ratio (MDR Er) from MDR1-transfected MDCK line cell line represents the ratio of permeability, Papp BA/AB. Procedure utilized from (Feng, B.; Mills, J. B.; Davidson, R. E.; Mireles, R. J.; Janiszewski, J. S.; Troutman, M. D.; de Morais, S. M. In vitro P-glycoprotein assays to predict the in vivo interactions of P-glycoprotein with drugs in the central nervous system. Drug Metab. Dispos. 2008, 36, 268-275.

Data set [3] can be described thus: Aniline structural alert.
Data set [4] addresses BACE1 (Homo sapiens (Human), UniProt P56817). As to the kind of experiment: BACE1 Cell-Free Assay (fluorescence polarization). The class given is biochemical. (In general: Fluorescence polarisation rises when a labelled molecule tumbles more slowly, as on binding a larger partner.)
Data set [5] addresses CYP2D6 (Homo sapiens (Human), UniProt P10635). As to the kind of experiment: General Multi-Point Cocktail DDI IC50 Assay. The method, then: General Multi-Point Cocktail DDI IC50 Assay Conditions:
The incubation volume is 0.1 mL, utilizing a 384-well plate format. […] Substrate concentrations are near Km values that had been previously determined and incubation times are selected based on determinations of reaction velocity linearity. […] Samples are directly injected on an HPLC/MS/MS system. A Biomek FX workstation is used for liquid handling and sample incubation.

Data set [6] in a line: HLM Clint (clearance in human liver microsomes). The class given is in vitro ADME. Particulars: for CLint scaled: human.
In data set [7] the target is hERG channel (Homo sapiens (Human), UniProt Q12809). As to the kind of experiment: hERG Patch Clamp Assay. Format: cell-based. The method, then:
After a ˜30 minute recovery period, experiments were initiated.
hERG Potassium Channel Current Recordings and Data Analysis:
The intracellular recording saline was composed of (in […]): 70 KF, 60 KCl, 15 NaCl, 5 EGTA, 5 HEPES, and adjusted to pH 7.2±0.1 with KOH. […] Test pulses were delivered at a frequency of 0.25 Hz. Up to 4 different concentrations were studied on each cell, each exposure lasting 5 minutes or until steady-state effects were observed. […] Using Sophion Qpatch Assay Software, the amplitude of the peak outward hERG current upon repolarizing ramp was measured. Current amplitude was determined by taking the average of the last 5 current peaks under each treatment condition. […] When possible, a concentration-response curve was plotted and the data were fitted using Qpatch software to determine an IC50. The P<0.05 was considered statistically significant.
Background: hERG is a cardiac potassium channel; its block is linked to QT prolongation.

Data set [8] concerns sAPPβ, the primary cleavage product of BACE1, in H4 human neuroglioma cells over-expressing the wild-type human APP695. As to the kind of experiment: sAPPβ Whole-Cell Assay (WCA). The note with it: 18 h. The class given is cell-based. Here is the method:
sAPPβ Whole-Cell Assay (WCA):
sAPPβ, the primary cleavage product of BACE1, was determined in H4 human neuroglioma cells over-expressing the wild-type human APP695. […] The colorimetric reaction was read by an EnVision (PerkinElmer) plate-reader.

A short description of data set [9]: GSH Incubation Assay. The class given is in vitro ADME. The note with it: for Observed GSH adducts: Incubations with glutathione (50 mM) at 37° C. in buffer for 4 hours; for formation of GSH adducts: following incubations. Here is the method:
The test compound (10 μM in DMSO) was incubated with L-glutathione (50 mM, prepared in 100 mM potassium phosphate buffer) at 37° C. for 4 hours and then analyzed by HPLC-UV/MS/MS without work-up. Thermo Accela HPLC and Velos Pro Orbitrap Elite (S/N: SN05189B) operating in positive mode with a source voltage of 3.5 kV with data dependant processing. HPLC with a Phenomenox Kinetex C18, 1.7 μM, 2.1×100 mm. column (P/N: 00D-4475-AN), 5% acetonitrile/95% 0.1% formic acid for 0.5 min then a 7.0 min linear gradient to 40% acetonitrile/60% 0.1% formic acid, 400 μL/min., column temperature 45° C. Product assignments were based on high resolution mass spectrometer fragmentation.

Where [10] appears, read: Measurement determined at Analyza.
Where [11] appears, read: MDR1-transfected MDCK cell line, ratio of permeability.
[12] abbreviates: Table 4, read-out: BACE1 Cell Free IC50.
[13] abbreviates: CHO cell transfected with hERG gene, automated Qpatch HT system.
Setting [14] is: Measurement determined at Analyza, read-out: pKa.
Setting [15] is: CHO cells transfected with hERG.
Setting [16] is: geometric mean of 2-4 determinations unless otherwise indicated (b: ≧5; c: single determination), read-out: BACE1 Cell-free Assay IC50.

Read-outs that look alike come from different tables or passages of the source.

BACE1, sequence (P56817 46-457): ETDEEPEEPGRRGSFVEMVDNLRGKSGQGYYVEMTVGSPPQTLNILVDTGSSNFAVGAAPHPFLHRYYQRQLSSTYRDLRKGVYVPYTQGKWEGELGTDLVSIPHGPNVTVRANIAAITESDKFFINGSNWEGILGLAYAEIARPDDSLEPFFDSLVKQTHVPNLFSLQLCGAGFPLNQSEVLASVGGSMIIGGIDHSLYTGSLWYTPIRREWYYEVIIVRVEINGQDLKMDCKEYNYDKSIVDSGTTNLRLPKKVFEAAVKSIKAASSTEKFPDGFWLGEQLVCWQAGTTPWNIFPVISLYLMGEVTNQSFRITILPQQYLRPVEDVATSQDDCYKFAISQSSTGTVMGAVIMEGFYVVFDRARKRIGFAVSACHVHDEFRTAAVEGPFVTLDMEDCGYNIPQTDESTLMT
P-glycoprotein (MDR1-transfected MDCK cell line), sequence (P08183 whole entry): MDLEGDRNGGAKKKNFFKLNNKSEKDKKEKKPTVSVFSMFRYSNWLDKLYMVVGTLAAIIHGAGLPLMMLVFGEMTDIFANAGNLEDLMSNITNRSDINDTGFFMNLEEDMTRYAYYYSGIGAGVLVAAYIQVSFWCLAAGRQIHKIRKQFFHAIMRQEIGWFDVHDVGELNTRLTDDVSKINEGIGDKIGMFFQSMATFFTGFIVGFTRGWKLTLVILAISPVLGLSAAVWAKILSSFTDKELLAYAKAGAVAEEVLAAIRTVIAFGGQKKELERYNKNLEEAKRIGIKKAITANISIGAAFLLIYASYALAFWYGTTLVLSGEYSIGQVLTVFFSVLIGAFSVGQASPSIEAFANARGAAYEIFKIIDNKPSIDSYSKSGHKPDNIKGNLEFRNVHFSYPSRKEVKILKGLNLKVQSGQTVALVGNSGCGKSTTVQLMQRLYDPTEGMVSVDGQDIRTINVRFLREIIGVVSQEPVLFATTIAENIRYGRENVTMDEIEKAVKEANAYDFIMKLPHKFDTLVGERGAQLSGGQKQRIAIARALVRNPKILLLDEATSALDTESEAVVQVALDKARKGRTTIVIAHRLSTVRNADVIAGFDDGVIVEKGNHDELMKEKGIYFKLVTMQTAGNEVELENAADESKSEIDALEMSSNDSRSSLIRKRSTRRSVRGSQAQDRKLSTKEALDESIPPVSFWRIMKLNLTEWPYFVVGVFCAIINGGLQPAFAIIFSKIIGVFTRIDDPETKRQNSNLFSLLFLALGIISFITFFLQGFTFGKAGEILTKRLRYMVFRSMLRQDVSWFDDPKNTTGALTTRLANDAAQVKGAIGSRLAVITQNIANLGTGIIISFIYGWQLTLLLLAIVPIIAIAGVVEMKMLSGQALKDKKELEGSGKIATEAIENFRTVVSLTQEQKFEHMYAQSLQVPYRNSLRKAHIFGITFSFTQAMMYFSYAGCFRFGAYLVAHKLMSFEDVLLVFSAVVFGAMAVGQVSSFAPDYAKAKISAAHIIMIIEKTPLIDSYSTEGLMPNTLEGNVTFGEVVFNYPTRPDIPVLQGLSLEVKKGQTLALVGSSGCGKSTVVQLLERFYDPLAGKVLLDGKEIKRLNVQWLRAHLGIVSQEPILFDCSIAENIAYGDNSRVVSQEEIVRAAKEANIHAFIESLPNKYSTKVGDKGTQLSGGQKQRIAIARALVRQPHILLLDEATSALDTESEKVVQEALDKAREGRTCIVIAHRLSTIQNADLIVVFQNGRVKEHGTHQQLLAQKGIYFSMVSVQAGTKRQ
CYP2D6, sequence (P10635 whole entry): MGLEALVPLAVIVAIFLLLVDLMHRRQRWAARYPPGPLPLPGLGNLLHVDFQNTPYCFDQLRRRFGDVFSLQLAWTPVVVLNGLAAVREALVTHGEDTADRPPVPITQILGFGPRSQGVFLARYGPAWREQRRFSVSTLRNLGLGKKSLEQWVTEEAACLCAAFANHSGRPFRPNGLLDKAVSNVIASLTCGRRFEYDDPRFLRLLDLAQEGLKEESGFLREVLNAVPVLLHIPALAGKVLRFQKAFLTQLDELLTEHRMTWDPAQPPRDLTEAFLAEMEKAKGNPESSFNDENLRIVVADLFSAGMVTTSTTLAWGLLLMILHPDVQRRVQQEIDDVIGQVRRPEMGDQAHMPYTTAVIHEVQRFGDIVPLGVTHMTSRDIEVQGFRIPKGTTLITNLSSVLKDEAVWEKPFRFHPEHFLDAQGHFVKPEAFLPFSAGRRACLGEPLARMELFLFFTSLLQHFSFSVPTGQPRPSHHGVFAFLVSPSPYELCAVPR
hERG channel, sequence (Q12809 whole entry): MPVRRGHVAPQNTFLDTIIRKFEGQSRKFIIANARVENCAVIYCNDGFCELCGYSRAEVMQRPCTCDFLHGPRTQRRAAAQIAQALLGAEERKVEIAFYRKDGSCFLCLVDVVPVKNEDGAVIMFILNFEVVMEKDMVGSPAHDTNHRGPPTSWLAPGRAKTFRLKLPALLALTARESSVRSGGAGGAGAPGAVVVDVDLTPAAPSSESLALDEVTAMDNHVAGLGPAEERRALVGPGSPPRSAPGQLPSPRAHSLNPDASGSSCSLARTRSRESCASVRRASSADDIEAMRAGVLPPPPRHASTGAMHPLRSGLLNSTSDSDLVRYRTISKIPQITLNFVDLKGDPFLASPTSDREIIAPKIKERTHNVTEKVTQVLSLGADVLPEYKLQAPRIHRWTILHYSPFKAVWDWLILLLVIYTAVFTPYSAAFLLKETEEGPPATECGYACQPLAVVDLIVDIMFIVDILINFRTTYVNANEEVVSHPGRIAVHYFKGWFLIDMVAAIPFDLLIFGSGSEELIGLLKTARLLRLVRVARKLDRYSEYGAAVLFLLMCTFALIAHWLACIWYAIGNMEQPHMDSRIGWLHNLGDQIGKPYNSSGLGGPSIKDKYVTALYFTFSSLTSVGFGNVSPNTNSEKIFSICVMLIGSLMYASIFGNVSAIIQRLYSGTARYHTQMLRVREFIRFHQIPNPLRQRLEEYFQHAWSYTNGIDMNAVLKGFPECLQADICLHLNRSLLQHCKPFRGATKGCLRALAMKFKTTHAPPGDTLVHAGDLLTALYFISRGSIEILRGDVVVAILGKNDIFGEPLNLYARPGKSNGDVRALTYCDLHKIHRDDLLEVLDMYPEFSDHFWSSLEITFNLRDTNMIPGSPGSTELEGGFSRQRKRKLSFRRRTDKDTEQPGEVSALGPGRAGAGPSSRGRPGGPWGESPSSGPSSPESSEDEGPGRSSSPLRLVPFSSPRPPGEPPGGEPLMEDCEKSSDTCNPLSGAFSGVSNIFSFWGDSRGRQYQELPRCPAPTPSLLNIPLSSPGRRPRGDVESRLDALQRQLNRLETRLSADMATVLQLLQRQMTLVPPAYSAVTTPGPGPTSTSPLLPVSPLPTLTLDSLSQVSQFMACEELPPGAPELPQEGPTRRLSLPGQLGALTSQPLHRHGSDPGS

The term pKa denotes the pH at which an ionisable group is half protonated. Turning to `C[C@H]1C[C@H]2CSC(N)=N[C@@]2(c2nc(NC(=O)c3ccc(OC(F)F)cn3)cs2)CO1` [Comparator 1], the pKa in data set [1] (setting [10]) came to 7.0. The “Pgp liability MDR1 Er” value in [2] (setting [11]) was determined as 7.1. Moreover, in data set [3], the “Aniline Structural Alert” value was “No”.
As a reminder, the IC50 is the concentration that gives 50% inhibition. For the compound `C[C@H]1C[C@H]2CSC(N)=N[C@@]2(c2nc(NC(=O)c3ccc(OC(F)F)cn3)ccc2F)CO1` [Comparator 2], the pKa in data set [1] and in [1] (setting [10]) was 8.7 in each case. Besides, in data set [2] (setting [11]), the “Pgp liability MDR1 Er” value was 14.2. For the same compound, in data set [3], the “Aniline Structural Alert” value was “No”. Moreover, the IC50 was 0.043 µM in data set [4] (setting [12]) and < 0.03 µM in [5] (read-out: CYP2D6 IC50). Further, the “HLM CLint” value in [6] turned out to be 22.9 mL/min/kg^.
With `C[C@H]1C[C@H]2CSC(N)=N[C@@]2(c2nc(NC(=O)c3ccc(OC(F)F)cn3)ccc2F)CO1` [Comparator 3, reference compound], the pKa in data set [1] (setting [10]) was 8.3. For the same compound, the “Pgp liability MDR1 Er” value in data set [2] (setting [11]) is recorded as 5.1. Besides, the “Aniline Structural Alert” value in [3] is “Yes”. The IC50 was found to be 0.003 µM in data set [4] (setting [12]) and 0.4 µM in data set [7] (setting [13]). Also, in data set [6], the “HLM CLint” value was determined as 19.8 mL/min/kg^.
In data set [1] (setting [10]), `NC1=N[C@@]2(c3cc(NC(=O)c4ccc(OC(F)F)cn4)ccc3F)COCC[C@H]2CS1` [Comparator 4, reference compound] displayed a pKa of 8.2. Also, the “Pgp liability MDR1 Er” value in [2] (setting [11]) was determined as 6.8. The “Aniline Structural Alert” value in data set [3] was “Yes”. In addition, the IC50 was 0.009 µM in data set [4] (setting [12]), < 0.1 µM in [5] (microsomes), 0.5 µM in [7] (setting [13]) and < 0.001 µM in data set [8]. Moreover, the “HLM CLint” value in data set [6] came to 8.3 mL/min/kg.
In general, CLint scaled refers to the capacity of the preparation to metabolise the compound, expressed as a volume cleared per time. Consider `C[C@H]1C[C@H]2CSC(N)=N[C@@]2(c2nc(NC(=O)c3ccc(OC(F)F)cn3)cs2)CO1` [Example 1, N-{2-[(4aR,6S,8aR)-2-amino-6-methyl-4,4a,5,6-tetrahydropyrano[3,4-d][1,3]thiazin-8a(8H)-yl]-1,3-thiazol-4-yl}-5-(difluoromethoxy)pyridine-2-carboxamide], for which the pKa in data set [1] (setting [14]) turned out to be 6.8. Further, in data set [2] (MDR1-transfected MDCK), the “Pgp liability MDR1 Er” value is on record as < 2.5. The concentration for half-maximal inhibition (IC50) in data set [5] was > 30 µM; in [5] (human, microsomes, pH 7.4), > 30 µM; in data set [7] (setting [13]), 9.9 µM; in [7] (setting [15]) it was > 5 µM; in data set [8] (Homo sapiens), 0.005 µM. The “HLM CLint” value in data set [6] is recorded as <8 mL/min/kg. Moreover, in data set [6], the CLint scaled is < 8 mL/min/kg. The “Observed GSH adducts” value in data set [9] is recorded as “Negative”. Moreover, the “formation of GSH adducts” value in data set [9] is on record as “not detected”.
Turning to `C[C@H]1C[C@H]2CSC(N)=N[C@@]2(c2nc(NC(=O)c3ccc(Cl)cn3)cs2)CO1` [Example 7, N-{2-[(4aR,6S,8aR)-2-amino-6-methyl-4,4a,5,6-tetrahydropyrano[3,4-d][1,3]thiazin-8a(8H)-yl]-1,3-thiazol-4-yl}-5-chloropyridine-2-carboxamide], the pKa in [1] (setting [14]) came to 6.9. Besides, the “Pgp liability MDR1 Er” value in data set [2] (MDR1-transfected MDCK) was < 2.5. For the same compound, the “Aniline Structural Alert” value in data set [3] was “No”. The IC50 in [5] was > 30 µM; in data set [5] (human, microsomes, pH 7.4) it was > 30 µM; in data set [7] (setting [13]) it was 9 µM; in data set [7] (setting [15]), > 5 µM; in [8] (Homo sapiens) it was 0.004 µM. Moreover, the “HLM CLint” value in [6] was <8 mL/min/kg. Also, the CLint scaled in [6] is < 8 mL/min/kg. Further, the “Observed GSH adducts” value in [9] was “Negative”. The “formation of GSH adducts” value in data set [9] is “not detected”.
Consider `Cc1cc(OC(F)F)cnc1C(=O)Nc1csc([C@]23CO[C@@H](C)C[C@H]2CSC(N)=N3)n1` [Example 45, N-{2-[(4aR,6S,8aR)-2-amino-6-methyl-4,4a,5,6-tetrahydropyrano[3,4-d][1,3]thiazin-8a(8H)-yl]-1,3-thiazol-4-yl}-5-(difluoromethoxy)-3-methylpyridine-2-carboxamide], for which, in data set [1] (setting [14]), the pKa is 6.9. Further, the “Aniline Structural Alert” value in [3] was “No”. In addition, the half-inhibitory concentration (IC50) is 0.023 µM in data set [4] (setting [12]); 0.023 µM in data set [4] (setting [16]); > 30 µM in data set [5]; > 30 µM in data set [5] (human, microsomes, pH 7.4); 0.003 µM in [8] (Homo sapiens). Moreover, in data set [6], the “HLM CLint” value is recorded as <8 mL/min/kg. For the same compound, in data set [6], the CLint scaled was < 8 mL/min/kg. Besides, in data set [9], the “Observed GSH adducts” value is reported as “Negative”. Also, the “formation of GSH adducts” value in [9] is “not detected”.
As for `Cc1oc(CF)nc1C(=O)Nc1csc([C@]23CO[C@@H](C)C[C@H]2CSC(N)=N3)n1` [Example 102, N-{2-[(4aR,6S,8aR)-2-amino-6-methyl-4,4a,5,6-tetrahydropyrano[3,4-d][1,3]thiazin-8a(8H)-yl]-1,3-thiazol-4-yl}-2-(fluoromethyl)-5-methyl-1,3-oxazole-4-carboxamide], the IC50 in data set [4] (setting [16]) was found to be 0.012 µM.
For `COCC(F)(F)c1ccc(C(=O)Nc2csc([C@]34CO[C@@H](C)C[C@H]3CSC(N)=N4)n2)nc1` [Example 103, N-{2-[(4aR,6S,8aR)-2-amino-6-methyl-4,4a,5,6-tetrahydropyrano[3,4-d][1,3]thiazin-8a(8H)-yl]-1,3-thiazol-4-yl}-5-(1,1-difluoro-2-methoxyethyl)pyridine-2-carboxamide], the IC50 in data set [4] (setting [16]) was found to be 0.282 µM.
Turning to `CCC(F)(F)Oc1ccc(C(=O)Nc2csc([C@]34CO[C@@H](C)C[C@H]3CSC(N)=N4)n2)nc1` [Example 104, N-{2-[(4aR,6S,8aR)-2-amino-6-methyl-4,4a,5,6-tetrahydropyrano[3,4-d][1,3]thiazin-8a(8H)-yl]-1,3-thiazol-4-yl}-5-(1,1-difluoropropoxy)pyridine-2-carboxamide], in data set [4] (setting [16]), the IC50 is 0.308 µM.
Take `C[C@H]1C[C@H]2CSC(N)=N[C@@]2(c2nc(NC(=O)C34CC(C3)C4)cs2)CO1` [Example 105, N-{2-[(4aR,6S,8aR)-2-amino-6-methyl-4,4a,5,6-tetrahydropyrano[3,4-d][1,3]thiazin-8a(8H)-yl]-1,3-thiazol-4-yl}bicyclo[1.1.1]pentane-1-carboxamide]: in data set [4] (setting [16]), the IC50 was found to be 0.085 µM.
As for `C[C@H]1C[C@H]2CSC(N)=N[C@@]2(c2nc(NC(=O)C3(C#N)CC3)cs2)CO1` [Example 106, N-{2-[(4aR,6S,8aR)-2-amino-6-methyl-4,4a,5,6-tetrahydropyrano[3,4-d][1,3]thiazin-8a(8H)-yl]-1,3-thiazol-4-yl}-1-cyanocyclopropanecarboxamide], the concentration for half-maximal inhibition (IC50) in [4] (setting [16]) worked out at 0.348 µM.
Turning to `C[C@H]1C[C@H]2CSC(N)=N[C@@]2(c2nc(NC(=O)C3CC3)cs2)CO1` [Example 107, N-{2-[(4aR,6S,8aR)-2-amino-6-methyl-4,4a,5,6-tetrahydropyrano[3,4-d][1,3]thiazin-8a(8H)-yl]-1,3-thiazol-4-yl}cyclopropanecarboxamide], the IC50 in data set [4] (setting [16]) is 0.475 µM.
On to `C[C@H]1C[C@H]2CSC(N)=N[C@@]2(c2nc(NC(=O)C3(C#N)CCC3)cs2)CO1` [Example 108, N-{2-[(4aR,6S,8aR)-2-amino-6-methyl-4,4a,5,6-tetrahydropyrano[3,4-d][1,3]thiazin-8a(8H)-yl]-1,3-thiazol-4-yl}-1-cyanocyclobutanecarboxamide], for which the IC50 in [4] (setting [16]) came out at 0.094 µM.
The same measure, in the same setting: the result for `C[C@H]1C[C@H]2CSC(N)=N[C@@]2(c2nc(NC(=O)C3(C)CCC3)cs2)CO1` [Example 109, N-{2-[(4aR,6S,8aR)-2-amino-6-methyl-4,4a,5,6-tetrahydropyrano[3,4-d][1,3]thiazin-8a(8H)-yl]-1,3-thiazol-4-yl}-1-methylcyclobutanecarboxamide] reads 0.461 µM.

Values taken from patent publication US9315520B2, “2-amino-6-methyl-4,4a,5,6-tetrahydropyrano[3,4-d][1,3]thiazin-8a(8H)-yl-1,3-thiazol-4-yl amides” (Pfizer Inc., priority 2014, dated 2016).
